Assay results as given in patent US6548687B1, “Chromium L-threonate, process for preparation of the same and their use” (priority 1998, dated 2003).
Read-outs that look alike come from different tables or passages of the source.

Tests used:
[1] = Precipitation of chromic hydroxide as a function of pH; type: physicochemical
[2] = for Stable Constant: coordination compound of L-threonic acid and chromic ion, deduced with computer simulation from titration curves; for pH: pH range of the coordination compound model, deduced with computer simulation

O=C(O)[C@H](O)[C@@H](O)CO.[O]=[Cr](=[O])([OH])[OH] [chromate L-threonate]
dissolution (in alcohol and ether): no dissolution | dissolution (in water): dissolution in water | precipitate of chromic hydroxide ([1]; even in basic condition): no precipitate

O=S(=O)([O-])[O-].O=S(=O)([O-])[O-].O=S(=O)([O-])[O-].[Cr+3].[Cr+3] [chromic sulphate]
pH at which solution forms precipitate [1]: ~4

O=C(O)[C@H](O)[C@@H](O)CO.[O]=[Cr](=[O])([OH])[OH] [Model C, chromate L-threonate]
Stable Constant ([2]; listed as C): −9.35 ± 0.26 | pH ([2]; listed as C): ˜6.0

O=C(O)[C@H](O)[C@@H](O)CO.[O]=[Cr](=[O])([OH])[OH] [Model A, chromate L-threonate]
Stable Constant ([2]; listed as A): −4.42 ± 0.14 | pH ([2]; listed as A): ˜4.5

O=C(O)[C@H](O)[C@@H](O)CO.[O]=[Cr](=[O])([OH])[OH] [Model B, chromate L-threonate]
Stable Constant ([2]; listed as B): −0.74 ± 0.34 | pH ([2]; listed as B): 3.5-4.0

[Cl][Cr]([Cl])[Cl] [chromic chloride]
pH at which solution forms precipitate [1]: ~4
